In PubChem BioAssay (NCI) one finds TGI and GI50 data, which are given here for 11 molecules.

SMILES strings stand for the structures.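 Grown in 96-well plates, cells were treated for 48 hours with each compound at five concentrations. Insufficient inhibition: endpoint recorded as highest concentration tested. GI50 = concentration required for 50% inhibition of growth. TGI is the concentration that stops growth completely.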

Test systems include M14 melanoma; TK-10 renal; SK-MEL-28 melanoma; NCI-H522 lung; OVCAR-5 ovarian; SF-539 CNS; RPMI-8226 leukemia; SK-MEL-5 melanoma; 786-0 renal; NCI-H460 lung; HCT-15 colon; OVCAR-3 ovarian; KM20L2 colon.
Assay in all cases: growth of human tumour cells (NCI), 48 h

On to `NS(=O)(=O)c1ccc(N=Nc2nc3[nH]cnc(=S)c3[nH]2)cc1`, for which the TGI with M14 melanoma is > 32.6 µM; in the assay with TK-10 renal, 19.3 µM; with SK-MEL-28 melanoma it was > 100 µM; in the assay on NCI-H522 lung, 10.2 µM; with OVCAR-5 ovarian, > 60.2 µM; in the assay on SF-539 CNS it was 34.4 µM. For the same molecule, the TGI with RPMI-8226 leukemia is 6.53 µM; with SK-MEL-5 melanoma, 24.8 µM; with 786-0 renal, > 100 µM; with NCI-H460 lung, 10.1 µM; with HCT-15 colon it was > 50.9 µM; with OVCAR-3 ovarian, > 22.5 µM.

Consider `CCN(CC)CCOCC1CCCN2CCCCC12` (stereo not given), for which the TGI with M14 melanoma, with TK-10 renal, in the assay on SK-MEL-28 melanoma, in the assay on OVCAR-5 ovarian, in the assay on SF-539 CNS and in the assay with RPMI-8226 leukemia was > 100 µM each time. Also, the TGI in the assay with SK-MEL-5 melanoma, in the assay with 786-0 renal, with NCI-H460 lung, in the assay on HCT-15 colon and in the assay with OVCAR-3 ovarian was > 100 µM in each case.

Regarding `C=CCCCCn1c2ccccc2c2c(C)c3c[n+](C)ccc3c(C)c21`, the TGI with M14 melanoma was 2.19 µM; in the assay with TK-10 renal it was 6.89 µM; in the assay with SK-MEL-28 melanoma, 1.41 µM; with NCI-H522 lung it was 0.608 µM; in the assay with OVCAR-5 ovarian, 3.26 µM; in the assay on SF-539 CNS, 1.83 µM. The TGI stood at 1.43 µM in the assay with RPMI-8226 leukemia, 1.36 µM with SK-MEL-5 melanoma, 2.31 µM with KM20L2 colon and 1.52 µM in the assay with OVCAR-3 ovarian.

Regarding `CCCC(=O)[O-].CCCC(=O)[O-].N.N.N.N.[Co+3].[O-][Cl+3]([O-])([O-])[O-]`, the TGI in the assay with M14 melanoma, in the assay on TK-10 renal, with SK-MEL-28 melanoma, in the assay on NCI-H522 lung, in the assay with OVCAR-5 ovarian and with SF-539 CNS was > 100 µM in each case. Besides, the TGI in the assay with RPMI-8226 leukemia, in the assay with SK-MEL-5 melanoma, in the assay with 786-0 renal, in the assay on KM20L2 colon, in the assay with NCI-H460 lung and in the assay on HCT-15 colon was > 100 µM in each case. Further, the TGI with OVCAR-3 ovarian is > 100 µM. Besides, the GI50 with KM20L2 colon was > 100 µM.

`Clc1ccc2c(Cl)nc(-c3ccccc3)nc2c1`: the TGI in the assay on TK-10 renal was > 100 µM; in the assay on SK-MEL-28 melanoma, > 100 µM; in the assay on OVCAR-5 ovarian it was > 100 µM; with RPMI-8226 leukemia, 55.3 µM; in the assay on SK-MEL-5 melanoma, 82.4 µM; in the assay on KM20L2 colon it was 68 µM. For the same molecule, the TGI was > 100 µM with NCI-H460 lung and 50.1 µM with OVCAR-3 ovarian.

On to `COc1cc(O)c2c(c1O)C(=O)c1cc(C)ncc1C2=O`, for which the TGI in the assay with M14 melanoma, with TK-10 renal, with SK-MEL-28 melanoma, in the assay with NCI-H522 lung, with OVCAR-5 ovarian and with SF-539 CNS was > 50 µM in each case. In addition, the TGI is > 50 µM with RPMI-8226 leukemia; 30 µM with SK-MEL-5 melanoma; > 50 µM with 786-0 renal; > 50 µM in the assay with KM20L2 colon; > 50 µM in the assay with NCI-H460 lung; > 50 µM in the assay with HCT-15 colon. Further, the TGI in the assay with OVCAR-3 ovarian is 45.9 µM.

As for `OCCN1CCN(c2nc(Nc3ccc(-c4nc5ccccc5[nH]4)cc3)c3cn[nH]c3n2)CC1`, the GI50 with SK-MEL-28 melanoma is 1.65 µM; in the assay on OVCAR-5 ovarian, 1.83 µM; in the assay on SF-539 CNS, 1.7 µM; in the assay on SK-MEL-5 melanoma, 1.75 µM; in the assay on HCT-15 colon, 1.15 µM; in the assay with OVCAR-3 ovarian it was 1.69 µM. The TGI in the assay on SK-MEL-28 melanoma worked out at 3.05 µM; in the assay on OVCAR-5 ovarian, 3.26 µM; in the assay with SF-539 CNS, 3.08 µM; in the assay on SK-MEL-5 melanoma, 3.15 µM; in the assay with HCT-15 colon, 2.5 µM; in the assay with OVCAR-3 ovarian, 3.28 µM.

Take `CCCCCCCSCC1OC(n2cnc3c(N)ncnc32)C(O)C1O` (stereo not given): the TGI is 48.5 µM in the assay on M14 melanoma; > 100 µM with TK-10 renal; > 100 µM with SK-MEL-28 melanoma; > 100 µM in the assay with OVCAR-5 ovarian; > 100 µM in the assay with SF-539 CNS; 69 µM with RPMI-8226 leukemia. The TGI with SK-MEL-5 melanoma was 30.8 µM; in the assay on KM20L2 colon it was > 100 µM; with NCI-H460 lung, 42.1 µM; in the assay on HCT-15 colon, 22.7 µM.

With `Oc1c2c(c3c4c1N=CC=4CCN=3)C1(C=C(Br)C(O)C(Br)=C1)CCN2` (stereo not given), the TGI turned out to be 21.5 µM in the assay with SK-MEL-28 melanoma; 0.818 µM with NCI-H522 lung; 4.49 µM in the assay with OVCAR-5 ovarian; 4.17 µM in the assay on SF-539 CNS; 7.41 µM in the assay on RPMI-8226 leukemia; 2.67 µM in the assay on SK-MEL-5 melanoma. The TGI with KM20L2 colon was 3.26 µM; in the assay on NCI-H460 lung, 8.47 µM; in the assay with HCT-15 colon it was 4.42 µM; in the assay with OVCAR-3 ovarian, 3.12 µM.

On to `Cc1n(-c2ccccc2)c2c([n+]1Cc1ccc([N+](=O)[O-])cc1)C(=O)c1ccccc1C2=O`, for which the TGI in the assay on M14 melanoma was 7 µM; in the assay with TK-10 renal it was 19.3 µM; in the assay on SK-MEL-28 melanoma, 3.59 µM; in the assay with NCI-H522 lung, 1.67 µM; in the assay with OVCAR-5 ovarian, 3.46 µM; in the assay with SF-539 CNS it was 3.88 µM. Further, the TGI with RPMI-8226 leukemia was 3.82 µM; with SK-MEL-5 melanoma it was 3.29 µM; in the assay on 786-0 renal it was 14.7 µM; with KM20L2 colon it was 9.84 µM; with NCI-H460 lung, 12.4 µM; in the assay on HCT-15 colon, 22.5 µM. In the assay with OVCAR-3 ovarian, this molecule displayed a TGI of 0.854 µM.

As for `Nc1nc(Sc2ccc([N+](=O)[O-])cn2)c2[nH]cnc2n1`, the TGI in the assay on M14 melanoma was 24.1 µM; in the assay on TK-10 renal, > 100 µM; in the assay on SK-MEL-28 melanoma it was > 100 µM; with NCI-H522 lung, 40.2 µM; with OVCAR-5 ovarian, > 100 µM; in the assay on SF-539 CNS, > 100 µM. Moreover, the TGI in the assay with RPMI-8226 leukemia was > 100 µM; with SK-MEL-5 melanoma, 31.2 µM; in the assay with 786-0 renal it was > 52.8 µM; in the assay with NCI-H460 lung, > 64.9 µM; in the assay with HCT-15 colon, > 73.3 µM; with OVCAR-3 ovarian it was > 75 µM.
